From patent US20250002475A1 (EPICS THERAPEUTICS, priority 2023, published 2025) come the findings set out here.

This test concerns the target T1, recombinant METTL3/METTL14 complex (Homo sapiens, UniProt Q86U44).
T1 construct: purchased Active Motif 311970; host or cells: Sf9 cells
Kind of test: METTL3/14 Scintillation Proximity Assay (SPA), RNA methyltransferase activity. The test is classed as biochemical. The following applies: 5.31 nM METTL3/14 complex, 250 nM RNA substrate, 1 μM 3H-SAM, 90 min; for compounds marked * best of the two separated forms.

Bounds are passed on as bounds.

T1 sequence (Q86U44 whole entry): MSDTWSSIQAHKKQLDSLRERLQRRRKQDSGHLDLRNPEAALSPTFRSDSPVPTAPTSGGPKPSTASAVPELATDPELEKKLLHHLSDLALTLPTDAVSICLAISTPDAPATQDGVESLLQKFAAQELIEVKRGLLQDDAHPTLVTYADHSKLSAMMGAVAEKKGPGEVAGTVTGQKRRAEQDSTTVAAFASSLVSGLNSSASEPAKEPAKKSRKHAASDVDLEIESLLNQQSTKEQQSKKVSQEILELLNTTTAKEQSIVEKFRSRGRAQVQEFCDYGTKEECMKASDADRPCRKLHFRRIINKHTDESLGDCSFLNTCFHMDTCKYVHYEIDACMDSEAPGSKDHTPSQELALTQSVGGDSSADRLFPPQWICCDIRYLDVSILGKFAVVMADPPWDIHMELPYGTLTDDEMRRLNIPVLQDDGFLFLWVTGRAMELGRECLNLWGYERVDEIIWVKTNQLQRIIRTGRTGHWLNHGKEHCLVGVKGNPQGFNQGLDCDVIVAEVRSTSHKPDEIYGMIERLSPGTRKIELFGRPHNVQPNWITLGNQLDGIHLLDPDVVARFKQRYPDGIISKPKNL
T1 sequence (Q9HCE5 whole entry partner): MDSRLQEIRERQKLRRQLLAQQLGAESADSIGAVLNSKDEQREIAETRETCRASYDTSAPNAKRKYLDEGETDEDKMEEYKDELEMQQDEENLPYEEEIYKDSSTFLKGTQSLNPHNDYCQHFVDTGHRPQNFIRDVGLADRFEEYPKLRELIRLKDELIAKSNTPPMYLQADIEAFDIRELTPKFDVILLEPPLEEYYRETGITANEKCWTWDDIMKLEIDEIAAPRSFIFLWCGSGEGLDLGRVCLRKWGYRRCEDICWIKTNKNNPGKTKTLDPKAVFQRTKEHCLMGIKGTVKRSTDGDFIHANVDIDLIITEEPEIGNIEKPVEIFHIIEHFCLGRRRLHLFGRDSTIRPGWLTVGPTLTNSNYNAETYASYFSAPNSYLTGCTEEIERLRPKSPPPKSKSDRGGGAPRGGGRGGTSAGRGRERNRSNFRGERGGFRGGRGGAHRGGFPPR

Take `CC(C(=O)Nc1cc(=O)n2ccccc2n1)c1ccc(N2CCC[C@@H](NCC3CCC3)C2)nn1` (stereo partly drawn) [Compound 275, 2-(6-((R)-3-((cyclobutylmethyl)amino)piperidin-1-yl)pyridazin-3-yl)-N-(4-oxo-4H-pyrido[1,2-a]pyrimidin-2-yl)propanamide]: the IC50 was in the range of 50 to 500 nM.
Under `COc1cc(-c2cn(Cc3ccc(N4CCCC(N5CC6(CCC6)C5)C4)nn3)nn2)c2cn[nH]c2c1` (centres unmarked) [Compound 035, 4-(1-((6-(3-(2-azaspiro[3.3]heptan-2-yl)piperidin-1-yl)pyridazin-3-yl)methyl)-1H-1,2,3-triazol-4-yl)-6-methoxy-1H-indazole] stands no more than 50 nM; under `CC(C(=O)Nc1cncc(N(C)C)c1)c1ccc(N2CCC[C@@H](NCC3CCC3)C2)nn1` (stereo partly drawn) [Compound 157, 2-(6-((R)-3-((cyclobutylmethyl)amino)piperidin-1-yl)pyridazin-3-yl)-N-(5-(dimethylamino)pyridin-3-yl)propanamide], 50 to 500 nM; under `CC(NC(=O)c1cc(=O)n2ccccc2n1)c1ccc(N2CCC[C@@H](NCC3CC3)C2)cn1` (mixture of isomers) [Compound 112, N-(1-(5-((R)-3-((cyclopropylmethyl)amino)piperidin-1-Yl)pyridin-2-yl)ethyl) -4-oxo-4H-pyrido[1,2-a]pyrimidine-2-carboxamide], no more than 50 nM.
As for `COc1cncc(-c2cn(Cc3ccc(N4CCCC(C)(NCC5CCC5)C4)nn3)nn2)c1` (centres unmarked) [Compound 053, N-(cyclobutylmethyl)-1-(6-((4-(5-methoxypyridin-3-yl)-1H-1,2,3-triazol-1-yl)methyl)pyridazin-3-yl)-3-methylpiperidin-3-amine], the IC50 is 50 to 500 nM.
Turning to `Cc1cncc(-c2cn(C(C)n3ccc(N4CCC[C@@H](NCC5CCC5)C4)cc3=O)nn2)c1` (mixture of isomers) [Compound 080, 4-((R)-3-((cyclobutylmethyl)amino)piperidin-1-yl)-1-(1-(4-(5-methylpyridin-3-yl)-1H-1,2,3-triazol-1-yl)ethyl)pyridin-2(1H)-one], the IC50 was no more than 50 nM.
Consider `COc1cncc(-n2cc(C(C)n3ccc(N4CCC[C@@H](NCC5CCC5)C4)cc3=O)nn2)c1` (mixture of isomers) [Compound 132, 4-((R)-3-((cyclobutylmethyl)amino)piperidin-1-yl)-1-(1-(1-(5-methoxypyridin-3-yl)-1H-1,2,3-triazol-4-yl)ethyl)pyridin-2(1H)-one], for which the IC50 was no more than 50 nM.
Regarding `CC(n1cc(-c2cncc(Br)c2)nn1)n1ccc(N2CCC[C@@H](NCC3CCC3)C2)cc1=O` (single isomer, unassigned) [Compound 152], the IC50 is no more than 50 nM.
Take `CC(n1cnc(-c2cc(=O)n3ccccc3n2)c1)n1ccc(N2CCC[C@@H](NCC3CCC3)C2)cc1=O` (single isomer, unassigned) [Compound 170]: the IC50 was no more than 50 nM.
Consider `COc1cncc(-c2cn(C(c3ccc(N4CCC[C@@H](NCC5CCC5)C4)nn3)C(F)(F)F)nn2)c1` (single isomer, unassigned) [Compound 064], for which the IC50 was no more than 50 nM.
Take `COc1cncc(-c2cn(C(C)n3ccc(N4CCC[C@@H](NCC5CCC5)C4)cc3=O)nn2)c1C` (stereo partly drawn) [Compound 108, 4-((R)-3-((cyclobutylmethyl)amino)piperidin-1-yl)-1-(1-(4-(5-methoxy-4-methylpyridin-3-yl)-1H-1,2,3-triazol-1-yl)ethyl)pyridin-2(1H)-one]: the IC50 is no more than 50 nM.
On to `COc1cnc(C)c(-c2cn(C(C)n3ccc(N4CCC[C@@H](NCC5CCC5)C4)cc3=O)nn2)c1` (stereo partly drawn) [Compound 114, 4-((R)-3-((cyclobutylmethyl)amino)piperidin-1-yl)-1-(1-(4-(5-methoxy-2-methylpyridin-3-yl)-1H-1,2,3-triazol-1-yl)ethyl)pyridin-2(1H)-one], for which the IC50 is no more than 50 nM.
Under `COc1ccc(C(=O)NC(C)c2ccc(N3CCC[C@@H](NCC4CCC4)C3)nn2)c2cn[nH]c12` (mixture of isomers) [Compound 092, N-(1-(6-((R)-3-((cyclobutylmethyl)amino)piperidin-1-yl)pyridazin-3-yl)ethyl)-7-methoxy-1H-indazole-4-carboxamide] stands no more than 50 nM; under `O=C(Cc1ccc(N2CCC[C@@H](NCC3CCC3)C2)cn1)Nc1cncc(N2CCCC2)c1` [Compound 271, (R)-2-(5-(3-((cyclobutylmethyl)amino)piperidin-1-yl)pyridin-2-yl)-N-(5-(pyrrolidin-1-yl)pyridin-3-yl)acetamide], no more than 50 nM.
As to `C=C(c1ccc(N2CCC[C@@H](NCC3CCC3)C2)cc1)n1cc(-c2cncc(N(C)C)c2)nn1` [Compound 155, (R)-5-(1-(1-(4-(3-((cyclobutylmethyl)amino)piperidin-1-yl)phenyl)vinyl)-1H-1,2,3-triazol-4-yl)-N,N-dimethylpyridin-3-amine], the IC50 was no more than 50 nM.
With `CC(NC(=O)c1cc(=O)n2ccccc2n1)c1ccc(N2CCC[C@@H](NCC3CCC3)C2)nc1` (stereo partly drawn) [Compound 072, N-(1-(6-((R)-3-((cyclobutylmethyl)amino)piperidin-1-yl)pyridin-3-yl)ethyl)-4-oxo-4H-pyrido[1,2-a]pyrimidine-2-carboxamide], the IC50 lay within 50 to 500 nM.
Under `CC(C(=O)Nc1cncc(N2CCCC2)n1)c1ccc(N2CCC[C@@H](NCC3CCC3)C2)cn1` (stereo partly drawn) [Compound 274, 2-(5-((R)-3-((cyclobutylmethyl)amino)piperidin-1-yl)pyridin-2-yl)-N-(6-(pyrrolidin-1-yl)pyrazin-2-yl)propanamide] stands no more than 50 nM; under `CC(n1cc(-c2cncc(F)c2)nn1)n1ccc(N2CCC[C@@H](NCC3CCC3)C2)cc1=O` (stereo partly drawn) [Compound 094, 4-((R)-3-((cyclobutylmethyl)amino)piperidin-1-yl)-1-(1-(4-(5-fluoropyridin-3-yl)-1H-1,2,3-triazol-1-yl)ethyl)pyridin-2(1H)-one], no more than 50 nM; under `COc1cncc(-c2nnn(C(C)n3ccc(N4CCC[C@@H](NCC5CCC5)C4)cc3=O)n2)c1` (mixture of isomers) [Compound 106, 4-((R)-3-((cyclobutylmethyl)amino)piperidin-1-yl)-1-(1-(5-(5-methoxypyridin-3-yl)-2H-tetrazol-2-yl)ethyl)pyridin-2(1H)-one], no more than 50 nM.
Under `CC(c1cnn(-c2cc(N(C)C)cnn2)c1)n1ccc(N2CCC[C@@H](NCC3CC3)C2)cc1=O` (mixture of isomers) [Compound 224, 4-((R)-3-((cyclopropylmethyl)amino)piperidin-1-yl)-1-(1-(1-(5-(dimethylamino)pyridazin-3-yl)-1H-pyrazol-4-yl)ethyl)pyridin-2(1H)-one] stands no more than 50 nM; under `CC(n1cc(-c2cncc(OC(F)F)c2)nn1)n1ccc(N2CCC[C@@H](NCC3CCC3)C2)cc1=O` (some centres unmarked) [Compound 131], no more than 50 nM.
`COc1cncc(NC(=O)C(C)c2ccc(N3CCC[C@@H](NCC4CCC4)C3)nn2)c1` (stereo partly drawn) [Compound 141, 2-(6-((R)-3-((cyclobutylmethyl)amino)piperidin-1-yl)pyridazin-3-yl)-N-(5-methoxypyridin-3-yl)propanamide]: the IC50 lay within 50 to 500 nM.
Then `COc1cncc(-c2nnn(C(C)c3ccc(N4CCC[C@@H](NCC5CCC5)C4)nn3)n2)c1` (single isomer, unassigned) [Compound 190], with no more than 50 nM.
As for `CNc1cnnc(-c2cn(C(C)n3ccc(N4CCC[C@@H](NCC5CCC5)C4)cc3=O)nn2)c1` (mixture of isomers) [Compound 122, 4-((R)-3-((cyclobutylmethyl)amino)piperidin-1-yl)-1-(1-(4-(5-(methylamino)pyridazin-3-yl)-1H-1,2,3-triazol-1-yl)ethyl)pyridin-2(1H)-one], the IC50 was no more than 50 nM.
Turning to `CC(c1ccc(N2CCC[C@@H](NCC3CCC3)C2)cc1)n1cc(-c2cc(=O)n3ccccc3n2)nn1` (some centres unmarked) [Compound 102], the IC50 was no more than 50 nM.
Then `O=C(NCc1ccc(N2CCC[C@@H](NCC3CCC3)C2)nc1)c1cc(=O)n2ccccc2n1` [Compound 061, (R)-N-((6-(3-((cyclobutylmethyl)amino)piperidin-1-yl)pyridin-3-yl)methyl)-4-oxo-4H-pyrido[1,2-a]pyrimidine-2-carboxamide], with no more than 50 nM; and `O=C(NCc1ccc(N2CCCC(N3CCC4(CC3)CC4)C2)nn1)c1cc(=O)n2ccccc2n1` (centres unmarked) [Compound 014, N-((6-(3-(6-azaspiro[2.5]octan-6-yl)piperidin-1-yl)pyridazin-3-yl)methyl)-4-oxo-4H-pyrido[1,2-a]pyrimidine-2-carboxamide], with 50 to 500 nM; and `COc1cncc(-c2cn(Cn3ncc(N4CCC[C@@H](NCC5CCC5)C4)cc3=O)nn2)c1` [Compound 062, (R)-5-(3-((cyclobutylmethyl)amino)piperidin-1-yl)-2-((4-(5-methoxypyridin-3-yl)-1H-1,2,3-triazol-1-yl)methyl)pyridazin-3(2H)-one], with no more than 50 nM.
As for `COc1cncc(-c2cc(C(C)n3ccc(N4CCC[C@@H](NCC5CCC5)C4)cc3=O)sn2)c1` (mixture of isomers) [Compound 204, 4-((R)-3-((cyclobutylmethyl)amino)piperidin-1-yl)-1-(1-(3-(5-methoxypyridin-3-yl)isothiazol-5-yl)ethyl)pyridin-2(1H)-one], the IC50 is no more than 50 nM.
Take `CC(C(=O)Nc1cncc(N2CCCC2)c1)c1ccc(N2CCC[C@@H](NCC3CC3)C2)nn1` (stereo partly drawn) [Compound 251, 2-(6-((R)-3-((cyclopropylmethyl)amino)piperidin-1-Yl)pyridazin-3-yl)-N-(5-(pyrrolidin-1-yl)pyridin-3-yl)propanamide]: the IC50 is no more than 50 nM.
Under `COc1cncc(-n2cc(C(C)n3ccc(N4CCC[C@@H](NCC5CCC5)C4)cc3=O)cn2)c1` (mixture of isomers) [Compound 120, 4-((R)-3-((cyclobutylmethyl)amino)piperidin-1-yl)-1-(1-(1-(5-methoxypyridin-3-yl)-1H-pyrazol-4-yl)ethyl)pyridin-2(1H)-one] stands no more than 50 nM; under `COc1cc(-c2cn(C(C)n3ccc(N4CCC[C@@H](NCC5CCC5)C4)cc3=O)nn2)cnc1C` (stereo partly drawn) [Compound 104, 4-((R)-3-((cyclobutylmethyl)amino)piperidin-1-yl)-1-(1-(4-(5-methoxy-6-methylpyridin-3-yl)-1H-1,2,3-triazol-1-yl)ethyl)pyridin-2(1H)-one], 50 to 500 nM.
